In PubChem BioAssay AID1033 (Sanford-Burnham Center for Chemical Genomics, 2008):
The source made the active and inactive calls. How the calls were made is not given here.

Molecular target: Chaperone protein DnaK (Escherichia coli (strain K12)) (UniProt P0A6Y8)
Assay: E. coli DnaK SBD ligand binding – biophysical, NMR, chaperone (AID 1033)
Conditions: Purified DnaK SBD

Chain of Chaperone protein DnaK (Escherichia coli (strain K12)) (P0A6Y8 whole entry, looked up): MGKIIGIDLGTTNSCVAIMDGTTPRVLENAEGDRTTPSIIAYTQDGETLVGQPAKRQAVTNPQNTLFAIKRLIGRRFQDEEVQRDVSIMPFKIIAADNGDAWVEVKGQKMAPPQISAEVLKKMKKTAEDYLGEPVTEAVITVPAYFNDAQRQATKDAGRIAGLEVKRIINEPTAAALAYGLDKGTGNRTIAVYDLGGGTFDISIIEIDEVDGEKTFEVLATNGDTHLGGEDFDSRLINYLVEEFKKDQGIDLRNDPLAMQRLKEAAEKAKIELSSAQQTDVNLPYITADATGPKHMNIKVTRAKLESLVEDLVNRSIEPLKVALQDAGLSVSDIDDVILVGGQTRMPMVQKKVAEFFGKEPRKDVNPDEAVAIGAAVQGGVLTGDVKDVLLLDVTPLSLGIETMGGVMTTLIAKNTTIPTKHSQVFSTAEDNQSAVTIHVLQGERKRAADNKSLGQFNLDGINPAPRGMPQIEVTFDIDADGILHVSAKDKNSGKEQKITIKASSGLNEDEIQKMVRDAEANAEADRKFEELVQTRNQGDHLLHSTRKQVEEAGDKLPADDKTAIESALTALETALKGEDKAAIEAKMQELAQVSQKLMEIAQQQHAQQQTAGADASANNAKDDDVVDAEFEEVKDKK

`NC(=O)c1ccc(N2C(=O)C=CC2=O)cc1Cl` was tested, and the Kd was > 4 mM (inactive).
`CC1(C)C(=O)CC[C@@]2(C)C1C[C@@H](O)[C@@]1(C)C3=CC(=O)O[C@@H](c4ccoc4)[C@]3(C)CCC21` (stereo partly specified) was tested, and the Kd was > 4 mM (inactive).
With `NS(=O)(=O)c1ccc(NC(=O)c2cccs2)cc1` the Kd was > 4 mM (inactive).
For `Cc1nc2ccc(NC(=O)N3CCSCC3)cc2s1`, the Kd was > 4 mM (inactive).
In the case of `Cc1occc1C(=O)Nc1nnc(-c2ccncc2)s1`, the Kd is reported as > 4 mM (inactive).
With `Cc1ccccc1NC(=O)C1CCC(=O)N1` (stereo unspecified) the Kd was > 4 mM (inactive).
For `OC12CC3CC(CC(C3)C1)C2`, the Kd was > 4 mM (inactive).
For `O=C(Nn1cnnc1)c1cc2c(s1)CCCC2`, the Kd was > 4 mM (inactive).
For `Oc1ccc2c(c1)OCC1(O)Cc3cc(O)c(O)cc3C21` (stereo unspecified), the Kd was > 4 mM (inactive).
In the case of `COC(=O)c1noc(C)c1C(C)=O`, the Kd is reported as > 4 mM (inactive).
For `COC(=O)c1nc(-c2ccccc2)oc1N(C)C`, the Kd was > 4 mM (inactive).
For `O=C1C2CC=CCC2C(=O)N1c1ccccc1O` (stereo unspecified), the Kd was > 4 mM (inactive).
`Clc1ncnc2[nH]ncc12` was tested, and the Kd was > 4 mM (inactive).
In the case of `CCP(=O)(CC)c1cccc(C)c1`, the Kd is reported as > 4 mM (inactive).
For `Nc1c(/C=C2\C=Nc3ccccc32)c(=O)nc2scnn12`, the Kd was > 4 mM (inactive).
With `CC(=O)c1cc(C(N)=O)c(=S)[nH]c1C` the Kd was > 4 mM (inactive).
With `CCOC(=O)C(C)c1n[nH]c(=O)c2ccccc12` (stereo unspecified) the Kd was > 4 mM (inactive).
For `O=C(NCc1ccncc1)c1cccc(F)c1`, the Kd was > 4 mM (inactive).
For `Cc1cc(N)ccc1NC(=O)c1ccco1`, the Kd was > 4 mM (inactive).
With `Cn1c(=O)n(C)c2cc(C(N)=O)ccc21` the Kd was > 4 mM (inactive).
With `NC(=O)CSc1nc2ncnc(N)c2[nH]1` the Kd was > 4 mM (inactive).
`O=C(CNC(=O)c1cccs1)NC1=NCCS1` was tested, and the Kd was > 4 mM (inactive).
In the case of `Cc1cc(SCC(=O)Nc2nccs2)nc(=O)[nH]1`, the Kd is reported as > 4 mM (inactive).
In the case of `CC(=O)c1c(C)n([O-])c2ccccc2[n+]1=O`, the Kd is reported as > 4 mM (inactive).
In the case of `O=C(NCc1ccc2c(c1)OCO2)c1cccs1`, the Kd is reported as > 4 mM (inactive).
For `NC1=NC(=O)/C(=C\c2ccccc2)S1`, the Kd was > 4 mM (inactive).
`Clc1ccccc1OCc1nc(-c2ccncc2)no1` was tested, and the Kd was > 4 mM (inactive).
For `COc1ccccc1Nc1nncc(=O)[nH]1`, the Kd was > 4 mM (inactive).
`Cc1cc(O)c(NC(=O)c2ccco2)cc1C` was tested, and the Kd was > 4 mM (inactive).
`CC(=O)Nc1cccc(N2C(=O)CCC2=O)c1` was tested, and the Kd was > 4 mM (inactive).
With `NC(=O)c1oc2ccccc2c1N` the Kd was > 4 mM (inactive).
For `Cc1ccc(NC(=O)CC2NCCNC2=O)c(C)c1` (stereo unspecified), the Kd was > 4 mM (inactive).
For `CC(C)(C)C(=O)N1CCCC1C(=O)O` (stereo unspecified), the Kd was > 4 mM (inactive).
In the case of `CS(=O)(=O)NN=C1CCCCC1`, the Kd is reported as > 4 mM (inactive).
In the case of `CC(C)NC(=O)Cc1c(O)c2ccccc2[nH]c1=O`, the Kd is reported as > 4 mM (inactive).
In the case of `CC(=O)Nc1nc(C)nc(-c2ccccc2)c1C(C)=O`, the Kd is reported as > 4 mM (inactive).
For `CSc1ccc(C(=S)N2CCN(C)CC2)cc1`, the Kd was > 4 mM (inactive).
In the case of `O=C(NN1CCOCC1)c1ccccc1F`, the Kd is reported as > 4 mM (inactive).
`OCC1Cc2ccccc2N1` (stereo unspecified) was tested, and the Kd was > 4 mM (inactive).
For `COC(=O)N1CCN(c2ccc(OC)cc2)CC1`, the Kd was > 4 mM (inactive).
In the case of `O=C(Nc1ccccc1)Nc1ccccn1`, the Kd is reported as > 4 mM (inactive).
`CC1=CC(=O)NC2C=CC=CC12` (stereo unspecified) was tested, and the Kd was > 4 mM (inactive).
`Cc1cc(C(=O)N2CCN(c3ccccn3)CC2)c(C)o1` was tested, and the Kd was > 4 mM (inactive).
`COC1C(O)C(O)C(O)[C@@H](O)C1O` (stereo partly specified) was tested, and the Kd was > 4 mM (inactive).
With `O=C1CSC(=Nc2ccccc2)N1` the Kd was > 4 mM (inactive).
For `Cc1cc(=O)[nH]c(NCC(=O)O)n1`, the Kd was > 4 mM (inactive).
`COC(=O)C[C@H]1C2(C)CC34OC5(C)O[C@@]6([C@H](OC(C)=O)C(OC(C)=O)[C@]7(C)C(/C(=C(/O)C(C)C)C(=O)O[C@H]7c7ccoc7)[C@@]6(O5)[C@H](OC(C)=O)[C@@]3(O)C2OC(=O)C(C)C)[C@]14C` (stereo partly specified) was tested, and the Kd was > 4 mM (inactive).
With `CC1=CC(C)C(C(=O)O)C(C(=O)N2CCN(C)CC2)C1` (stereo unspecified) the Kd was > 4 mM (inactive).
In the case of `O=c1[nH]c(O)c(C=NCc2cccs2)c(=O)[nH]1`, the Kd is reported as > 4 mM (inactive).
`CC1(C)Cc2nc(N3CCOCC3)c(C#N)cc2CO1` was tested, and the Kd was > 4 mM (inactive).
With `NC(=O)Cn1nnc(-c2ccc(C(F)(F)F)cc2)n1` the Kd was > 4 mM (inactive).
For `CC(=O)Oc1ccc2c(c1OC(C)=O)OCC1(O)Cc3c(cc(OC(C)=O)c(OC(C)=O)c3OC(C)=O)C21` (stereo unspecified), the Kd was > 4 mM (inactive).
`COc1c2occc2cc2ccc(=O)oc12` was tested, and the Kd was > 4 mM (inactive).
`CCn1cnc2cc([N+](=O)[O-])ccc2c1=O` was tested, and the Kd was > 4 mM (inactive).
For `O=C(c1ccccc1)c1ccccc1C(=O)N1CCCC1`, the Kd was > 4 mM (inactive).
In the case of `NC(=O)CN1C(=O)c2cccc3cccc1c23`, the Kd is reported as > 4 mM (inactive).
In the case of `COc1cc(O)c2c(c1)C(=O)c1cc(C)cc(O)c1C2=O`, the Kd is reported as > 4 mM (inactive).
With `CNc1nnc(Cc2csc(N)n2)s1` the Kd was > 4 mM (inactive).
`O=C(O)CCC1=C2c3ccccc3CCN2C(=O)CC1` was tested, and the Kd was > 4 mM (inactive).
`Cc1c(C(=O)Nc2ccccn2)oc2ccccc12` was tested, and the Kd was > 4 mM (inactive).
With `Cc1cc(C)n2nc(Cc3ccccc3)nc2n1` the Kd was > 4 mM (inactive).
With `CC(=O)NC(O)C(=O)c1cccs1` (stereo unspecified) the Kd was > 4 mM (inactive).
In the case of `O=c1ccc2cc(O[C@@H]3O[C@H](CO)[C@@H](O)[C@H](O)[C@H]3O)c(O)cc2o1`, the Kd is reported as > 4 mM (inactive).
`C[C@@H]1C(=O)OC2[C@H](O)C34[C@@H]5OC(=O)[C@@]3(O[C@@H]3OC(=O)[C@H](O)[C@@]34[C@H](C(C)(C)C)[C@H]5O)[C@]21O` (stereo partly specified) was tested, and the Kd was > 4 mM (inactive).
In the case of `CCOC(=O)c1c(C)[nH]c2ccc(O)cc12`, the Kd is reported as > 4 mM (inactive).
In the case of `CC(=O)OC/C=C(\C)CC/C=C(\C)CC/C=C(\C)CC/C=C(\C)CC/C=C(\C)CC/C=C(\C)CC/C=C(\C)CC/C=C(\C)CCC=C(C)C`, the Kd is reported as > 4 mM (inactive).
In the case of `Cc1cc(C(=O)Nc2ccon2)cs1`, the Kd is reported as > 4 mM (inactive).
In the case of `Cc1cc(C(=O)NCc2cccnc2)cs1`, the Kd is reported as > 4 mM (inactive).
With `COc1c2ccoc2cc2oc(=O)ccc12` the Kd was > 4 mM (inactive).
With `O=C(Nn1c(=S)[nH]c2ccccc2c1=O)c1ccncc1` the Kd was > 4 mM (inactive).
`Cc1cc(C)c(C#N)c(N2CCCC2)n1` was tested, and the Kd was > 4 mM (inactive).
With `O=C1CCC(=O)N1CN1CCOCC1` the Kd was > 4 mM (inactive).
In the case of `Cn1ccc(NC(=S)NC2CCCC2)n1`, the Kd is reported as > 4 mM (inactive).
In the case of `C[C@@H]1CC[C@]2(C(=O)O)CC[C@]3(C)C(=CCC4[C@@]5(C)CC[C@H](O)C(C)(C)C5CC[C@]43C)C2[C@H]1C` (stereo partly specified), the Kd is reported as > 4 mM (inactive).
`O=c1[nH]c(CN2CCN(CCO)CC2)nc2ccccc12` was tested, and the Kd was > 4 mM (inactive).
`CCOC(=O)c1ccc2c(c1)nnn2C` was tested, and the Kd was > 4 mM (inactive).
`CC(=O)NCC1OCCc2ccccc21` (stereo unspecified) was tested, and the Kd was > 4 mM (inactive).
In the case of `COc1ccc(Cl)cc1-c1nc(-c2ccncc2)no1`, the Kd is reported as > 4 mM (inactive).
For `O=C(NN1CCOCC1)c1cccs1`, the Kd was > 4 mM (inactive).
`NC(=O)CSc1ccc(-c2ccco2)nn1` was tested, and the Kd was > 4 mM (inactive).
In the case of `O=C1c2ccncc2C(=O)N1CNc1ccccn1`, the Kd is reported as > 4 mM (inactive).
`CCOC(=O)c1sc(SC)c2c1CCCC2O` (stereo unspecified) was tested, and the Kd was > 4 mM (inactive).
`CC(=O)c1cccc(NS(=O)(=O)N2CCCCC2)c1` was tested, and the Kd was > 4 mM (inactive).
`COc1ccc2c(c1)C(NC(C)=O)C(=O)N2C` (stereo unspecified) was tested, and the Kd was > 4 mM (inactive).
In the case of `O=C(O)CSc1cccc2cccnc12`, the Kd is reported as > 4 mM (inactive).
For `c1cncc(Cn2cccc2)c1`, the Kd was > 4 mM (inactive).
With `CC(C)(C)c1cc(N)n[nH]1` the Kd was > 4 mM (inactive).
`CC(=O)Nc1ccc(Nc2nnc(C)c(=O)[nH]2)cc1` was tested, and the Kd was > 4 mM (inactive).
With `O=C(Nc1ccc2c(c1)OCO2)c1cccs1` the Kd was > 4 mM (inactive).
With `O=C1c2ccccc2C(=O)N1/N=C/c1ccc[nH]1` the Kd was > 4 mM (inactive).
For `O=C(O)c1ccc(CSc2ncn[nH]2)cc1`, the Kd was > 4 mM (inactive).
`NC(=O)CSc1nc2ccccc2o1` was tested, and the Kd was > 4 mM (inactive).
`O=S(=O)(c1cccc(Cl)c1)N1CCCC1` was tested, and the Kd was > 4 mM (inactive).
With `Cc1c(CCO)c(=O)n2c([nH]c3ccccc32)c1C#N` the Kd was > 4 mM (inactive).
In the case of `Cc1c(O)c(O)cc2c1CC=C1[C@@]2(C)CC[C@@]2(C)C3C[C@](C)(C(=O)O)CC[C@]3(C)CC[C@]12C` (stereo partly specified), the Kd is reported as > 4 mM (inactive).
In the case of `O=c1[nH]c(=S)[nH]c2c1CCC2`, the Kd is reported as > 4 mM (inactive).
With `CC(=O)Nc1ccc(NC2SC(=O)NC2=O)cc1` (stereo unspecified) the Kd was > 4 mM (inactive).
For `Nc1ccncc1`, the Kd was > 4 mM (inactive).
`CC(=O)O[C@H]1CC[C@@]2(C)C(=CC(=O)C3C4CCC(C(C)CCCC(C)C)[C@@]4(C)CCC32)C1` (stereo partly specified) was tested, and the Kd was > 4 mM (inactive).
In the case of `Nc1cccc(-c2cnco2)c1`, the Kd is reported as > 4 mM (inactive).
`O=C(O)C12CC3CC(CC(O)(C3)C1)C2` was tested, and the Kd was > 4 mM (inactive).
With `NC(CC(=O)O)c1ccccc1` (stereo unspecified) the Kd was > 4 mM (inactive).
`COc1ccc(-c2cc(=O)c3c(OC)c(OC)c(OC)c(OC)c3o2)cc1OC` was tested, and the Kd was > 4 mM (inactive).
`NNC(=O)c1ccccc1-n1cccc1` was tested, and the Kd was > 4 mM (inactive).
In the case of `O=C1CN(C(=O)CN2CCOCC2)c2ccccc2N1`, the Kd is reported as > 4 mM (inactive).
`CC1C[C@H]2CC(=O)[C@H]3CCCN4CCC[C@H]2[C@]34C1` (stereo partly specified) was tested, and the Kd was > 4 mM (inactive).
For `Cn1c(CO)nc2cc(N)ccc21`, the Kd was > 4 mM (inactive).
With `CC(=O)Oc1c(C)c(C)c2c(c1C)CCC(C)(CCCC(C)CCCC(C)CCCC(C)C)O2` (stereo unspecified) the Kd was > 4 mM (inactive).
With `CC(=O)Nc1nnc(-c2ccccn2)o1` the Kd was > 4 mM (inactive).
`COCc1cc(Cl)nc(-c2csc(C)n2)n1` was tested, and the Kd was > 4 mM (inactive).
`O=C(NCc1cccc(Cl)c1)c1cnccn1` was tested, and the Kd was > 4 mM (inactive).
`O=C(CS(=O)(=O)c1ccccc1)N1CCCCCC1` was tested, and the Kd was > 4 mM (inactive).
For `CC(=O)c1ccc[nH]1`, the Kd was > 4 mM (inactive).
`CC(=O)O[C@H]1C[C@@]2(C)[C@@H](C[C@@H](O)C3[C@]2(C)CC[C@H]2[C@H](C)[C@H](O)CC[C@]32C)/C1=C(/CCC=C(C)C)C(=O)O` (stereo partly specified) was tested, and the Kd was > 4 mM (inactive).
`O=C(O)c1ccc(N2CCCCC2)cc1` was tested, and the Kd was > 4 mM (inactive).
In the case of `O=C(NCCO)c1cc2ccccc2c(=O)s1`, the Kd is reported as > 4 mM (inactive).
